# Test results reported in patent publication US10383938B2 (priority 2010, dated 2019).
# Assays:
# [1] = tested on: systemic tumor necrosis factor (TNF); test: Systemic TNF induction in vivo after subcutaneous injection (Example 4); conditions: mice
# Method: The resiquimod preparation was made as an aqueous suspension in PBS.
# At one hour and at three hours post dose, the mice were bled and systemic TNF was measured in the serum (pg/mL) by ELISA assay. The results are presented as the geometric means obtained for each group of five animals. […] This can be important in providing localized immune system enhancement without systemic TNF side effects.
# TNF mRNA = test: Local in vivo activity: TNF mRNA gene expression in draining lymph nodes by quantitative PCR (Example 11); set-up: species or system Balb/c male mice; conditions: s.c. 1.0 mg/kg; for TNF mRNA Gene Expression in Lymph Nodes [fold increase versus control (s.d.)]: draining axial and brachial lymph nodes
# Method: (§1) The final dose for either compound was 1.0 mg/kg. At each time point, the mice were bled, sacrificed, and the draining axial and brachial lymph nodes were removed and placed in RNA preservation fluid (RNA later reagent obtained from Ambion Corporation, Austin, Tex.). Serum samples were analyzed for TNF protein concentration (pg/ml) by ELISA as a measure of systemic presence of this cytokine. The draining lymph nodes were processed for measurement of TNF mRNA gene expression by quantitative PCR (7900HT Thermocycler obtained from Applied Biosystems, Carlsbad, Calif.). The data reported (Table 10) is the mean+/−standard deviation (s.d.) for each group. The “not detected” level for serum TNF concentration was less than 10 pg/ml.
# [2] = tested on: interferon-gamma (IFNgamma); set-up: species or system mice; conditions: mouse, in vivo
# TNF protein = test: Local in vivo activity: serum TNF protein by ELISA (Example 11); set-up: species or system Balb/c male mice; conditions: s.c. 1.0 mg/kg, mean (s.d.) of 4 mice, not detected = less than 10 pg/ml
# Method: as §1
# [3] = tested on: human peripheral mononuclear cells (PBMC); test: TNF production in human PBMC (Example 7); assay type: cell-based; conditions: for TNF: human PBMC, overnight at 37° C., ELISA
# Method: The human peripheral blood mononuclear cells were prepared from human volunteers and placed in culture in 96 well microtiter plates. […] The cells were then incubated overnight at 37° C. The medium was removed and TNF concentration (ng/mL) was measured by ELISA assay (Table 6).
Compound,TNF mRNA Gene Expression in Lymph Nodes [fold increase versus control (s.d.)] (TNF mRNA; 1 hour post dose),TNF mRNA Gene Expression in Lymph Nodes [fold increase versus control (s.d.)] (TNF mRNA; 3 hours post dose),TNF mRNA Gene Expression in Lymph Nodes [fold increase versus control (s.d.)] (TNF mRNA; 6 hours post dose),TNF mRNA Gene Expression in Lymph Nodes [fold increase versus control (s.d.)] (TNF mRNA; 18 hours post dose),"In Vitro Challenge of Isolated Spleenocytes, IFNgamma, Control PBS Challenge [2]","In Vitro Challenge of Isolated Spleenocytes, IFNgamma, HA Antigen Challenge [2]",Serum TNF [pg/ml (s.d.)] (TNF protein; 1 hour post dose),Serum TNF [pg/ml (s.d.)] (TNF protein; 3 hours post dose),Serum TNF [pg/ml (s.d.)] (TNF protein; 6 hours post dose),also measured
"CCCCCCCCCCCCCCCCCC(=O)NCCCCOn1c(CCCC)nc2c(N)nc3ccccc3c21 [N-(4-{[4-amino-2-butyl-1H-imidazo[4,5-c]quinolin-1-yl]oxy}butyl)octadecanamide]",0.65 (0.04) fold increase versus control,1.62 (1.23) fold increase versus control,7.23 (2.07) fold increase versus control,1.55 (0.28) fold increase versus control,4.82 pg/mL,293.51 pg/mL,not detected,not detected,not detected,"systemic TNF response (in words) ([1]; subcutaneous injection, 1 mg/Kg, summary of Table 3): does not induce a systemic TNF response; cytokine induction effects, local versus systemic (in words) (TNF mRNA; TNF mRNA induced in draining lymph nodes without TNF protein in serum): primarily local; Serum TNF [pg/ml (s.d.)] (TNF protein; 18 hours post dose): not detected; TNF ([3]; 0.014 μM): 0.13 ng/mL; TNF ([3]; 0.043 μM): 0.17 ng/mL; TNF ([3]; 0.13 μM): 0.35 ng/mL; TNF ([3]; 0.37 μM): 2.51 ng/mL; TNF ([3]; 1.1 μM): 7.07 ng/mL; TNF ([3]; 3.3 μM): 28.73 ng/mL; TNF ([3]; 10 μM): 31.46 ng/mL; TNF ([3]; 30 μM): 29.47 ng/mL; induction of TNF-α production (in words) ([3]; summary statement, ""as described above""): induce the production of TNF-α"
"CCOCc1nc2c(N)nc3ccccc3c2n1CC(C)(C)O [Resiquimod, resiquimod, reference compound]",14.19 (3.83) fold increase versus control,4.82 (0.70) fold increase versus control,1.39 (0.27) fold increase versus control,0.90 (0.23) fold increase versus control,3.84 pg/mL,91.88 pg/mL,4082 (873) pg/ml,107 (35) pg/ml,18 (4) pg/ml,"TNF concentration at Times Following Treatment, 1 hour ([1]; s.c. 1 mg/Kg, serum at 1 hour post dose, geometric mean of 5 animals): 1140.41 pg/mL; TNF concentration at Times Following Treatment, 3 hour ([1]; s.c. 1 mg/Kg, serum at 3 hours post dose, geometric mean of 5 animals): <5 pg/mL"
